Reference: the NIST ThermoML archive (doi:10.1016/j.fluid.2017.10.023)

Experiment: xn = mol fraction of the nth substance listed
Conditions: 313.15 K; for surface tension liquid-gas: Pendant drop shape; for mass density: Liquid, Vibrating tube method

CCCCC [pentane] + C
Conditions | mass density [kg/m3] | surface tension liquid-gas [mN/m]
x2 = 0.048 | 594.4 | 12
x2 = 0.101 | 581 | 10.13
x2 = 0.181 | 558.8 | 7.61
x2 = 0.263 | 533.1 | 5.37
x2 = 0.351 | 501.8 | 3.26
x2 = 0.43 | 466.3 | 1.68
x2 = 0.501 | 431.5 | 0.761
